Measured values: patent publication US7112608B2, “Hydroxyphenylundecane, a process for their production and their use” (Sanofi-Aventis Deutschland GmbH, priority 2002, dated 2006)

Tests used:
[1] = Physico chemical properties: solubility; format: physicochemical; details: solvents in which the compound is soluble
JNK3 = target: T1, JNK3 (Homo sapiens, UniProt P53779); assay: JNK3 Assay (HTRF, JNK-3/GST-ATF2); format: biochemical; details: JNK3 kinase, GST-ATF2 substrate, 15 μM ATP solution, 20 min at 37° C.
T1 construct: Biotech, Vitry
Method: The assay was performed on a Cybio pipetting system in the 384-well plate format. The final assay volume was 30 μl, comprising 10 μl of a probe (an extract or a pure substance-to-be-tested), 10 μl of an enzym-subtrate mixture (JNK-3/GST-ATF2) and 10 μl ATP solution. After 20 min incubation at 37° C. 50 μl HTRF abtibody mixture (XL665-anti-GST/(Eu)cryptat anti-P-ATF2) were added. The emission intensity of the energy transfer and of Eu at 665 and 615 nm, resp., were measured after 120 min at room temperature and stimulation of the probes at 340 nm in a Victor2® (Wallac).
Buffer I for diluting JNK3, GST-ATF2, ATP:
Buffer II for diluting HTRF reagents:
Each plate included 16 positiv controls (maximum energy transfer, buffer I instead of probe), 8 blank controls (minimal energy transfer, buffer 11 instead of ATP) and 8 wells containing a 200 μM EDTA solution.
The results were calculated as follows:
Signal Ration: SR=(intensity(665 nm)/intensity(615 nm)) Blank Correction: Delta F(%)=[…] Inhibition: Inhibition (%)=100×[1−(Delta F(Probe)/Delta F(max))

T1 sequence (P53779 whole entry): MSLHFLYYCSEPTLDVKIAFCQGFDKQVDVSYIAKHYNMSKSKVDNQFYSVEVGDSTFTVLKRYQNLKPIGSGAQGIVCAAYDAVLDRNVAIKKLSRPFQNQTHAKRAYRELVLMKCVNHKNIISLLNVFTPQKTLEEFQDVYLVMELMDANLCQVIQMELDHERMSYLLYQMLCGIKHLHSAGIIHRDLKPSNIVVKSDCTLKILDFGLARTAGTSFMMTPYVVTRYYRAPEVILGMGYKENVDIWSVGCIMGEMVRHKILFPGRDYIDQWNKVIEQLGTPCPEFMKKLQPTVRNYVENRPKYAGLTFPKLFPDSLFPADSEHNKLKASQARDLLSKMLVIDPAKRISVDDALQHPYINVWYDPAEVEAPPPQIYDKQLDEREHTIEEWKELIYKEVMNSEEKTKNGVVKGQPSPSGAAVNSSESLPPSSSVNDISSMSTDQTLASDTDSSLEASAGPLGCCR

Structure (SMILES): CCCCCCCCCCCc1cc(O)cc(O)c1C(=O)OC(CCC)CCCCCCCc1cc(OS(=O)(=O)O)cc(OS(=O)(=O)O)c1 (stereo not drawn) [Spinosulfate A]
- Solubility [1]: Methanol, DMSO
- IC50 (JNK3): 0.5 µM

Structure (SMILES): CCCCCCCCCCCc1cc(O)cc(O)c1C(=O)OC(CCC)CCCCCCCc1cc(O)cc(O)c1 (stereo not drawn) [Spinosulfate B]
- IC50 (JNK3): 10 µM
